From PubChem BioAssay AID179 (DTP/NCI, 2004)
The source made the active and inactive calls.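 The calls were made as follows: active = compounds giving half or more protection of infected cells from virus-caused growth loss, again on retest; inactive = the rest.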 *1 amine or outer side, *2 acyl side, *3 side chain or, on linkers, in order; H or OH if unused. Where a SMILES comes first, the peptide text is derived from it. [ ]: non-standard residue; d: D form. X21 = NC(=O)CCC(CN[*:1])C(=O)[*:2]

Tested on: CEM cells HIV-1 protection, formazan growth assay
Assay: NCI AIDS Antiviral Assay
Conditions: for IC50: measured here: growth of uninfected CEM cells
In short: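 CEM (human) cells, HIV-1 infected vs uninfected, 5-point dosing, formazan growth read-out. Retest threshold 50% protection.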

SMILES | EC50 [µM] | IC50 [µM] | outcome
CCOC#CCCOCc1ccccc1 | > 66.1 | > 66.1 | 
CC1/C=C/C=C/CC/C=C/C=C/C=C/C=C/C(OC2OC(C)C(O)C(N)C2O)CC2OC(CC(O)C(O)CCC(O)CC(O)CC(O)CC(=O)OC(C)C(C)C1O)CC(O)C2C(=O)O (configuration not stated) | > 50.1 | 3.31 | 
N#Cc1c(-c2ccc(Cl)c(Cl)c2)c(-c2ccc(Cl)c(Cl)c2)nn(CC(=O)O)c1=O | > 200 | 55 | 
COCCCNC(=O)C1C(=O)C(=O)N(CCCOC)C1=O (configuration not stated) |  |  | inactive
CO/C=C/CCCNCc1ccccc1 | > 457 | > 457 | 
O=C1c2cccc(O)c2C(=O)c2cccc(O)c21 | > 4.37 | > 4.37 | 
O=C1CCCCC1CN(Cc1ccccc1)Cc1ccccc1 (configuration not stated) |  |  | inactive
CC1(C)CC(=O)C(CC2C(=O)c3ccccc3C2=O)C(=O)C1C(=O)C(=O)Nc1cccc2ccc(O)cc12 (configuration not stated) | > 51.3 | > 51.3 | 
CCOc1ccc(NC(=O)C2=C(C)NC(C)=C(C(=O)Nc3ccc(OCC)cc3)C2c2ccc([N+](=O)[O-])cc2)cc1 | > 12.9 | > 12.9 | 
Cc1nn(-c2ccccc2)c(-c2ccccc2[N+](=O)[O-])c1CC#N |  |  | inactive
CCOC(=O)N1CCC2(CC1)C[C@](C)(C(C)=O)C(C)O2 (some centres not stated) | > 200 | > 200 | 
CC1OC(O[C@H]2C3C=CO[C@@H](OC4OC(CO)C(O)C(O)C4O)C3[C@@]3(COC(=O)/C=C/c4ccc(O)cc4)O[C@@H]23)C(O)C(O)C1O (some centres not stated) | > 200 | > 200 | 
CC(C)(C)c1ccc(OCCOc2ccc(C(C)(C)C)cc2NC=O)c(NC=O)c1 | > 200 | 5.13 | 
COC(=O)C(=O)C(C(=O)C=C(C)C)C(=O)C(=O)Nc1ccc(Cl)cc1C (configuration not stated) |  |  | inactive
COc1ccc2c(c1O)C1=CC(=O)CC[C@]13CCN(C)[C@H]3C2 | > 832 | 661 | 
C(=Nc1ccccc1C1SCCCS1)c1ccccc1 | > 200 | > 200 | 
NC(Cc1ccc(B(O)O)cc1)C(=O)NC(CO)CO (configuration not stated) | > 200 | > 200 | 
N=N/C(=C\c1c(O)[nH]c2ccccc12)c1ccccc1 | > 200 | 3.31 | 
CCC(C)C(NC(=O)C(CCC(N)=O)NC(=O)C1CCCN1)C(=O)NC(C(=O)NC(CC(C)C)C(=O)NC(Cc1c[nH]c2ccccc12)C(=O)NCC(CCC(N)=O)C(=O)NC(CCCN=C(N)N)C(=O)N1CCCC1C(=O)NC(CC(C)C)C(=O)O)C(C)O (configuration not stated) (H-PQITLW[X21]RPL-OH; configuration not given here) |  |  | inactive
O=C1c2c(c(-c3ccccc3)c(-c3ccccc3)c(-c3ccccc3)c2-c2ccccc2)C(=O)N1c1cccc(Br)c1 | > 3.31 | > 3.31 | 

SMILES | EC50 [µM] | IC50 [µM] | outcome
Cc1ccc(NC(=O)C(=O)Cc2cc[n+]([O-])cc2)cc1 | > 47.9 | > 47.9 | 
COc1cccc(C(=O)C#Cc2cnc(OC)nc2OC)c1 | > 0.2 | 0.0437 | 
O=S1c2ccccc2-c2ccccc21 | > 447 | > 447 | 
CC(C)N1CN(C(C(=O)N[C@@H]2C(=O)N3C2SC(C)(C)C3C(=O)O)c2ccc(O)cc2)CSC1=S (some centres not stated) | > 479 | 79.4 | 
CC1(C)NC(=O)C2(CC(O)C(O)C(OC(=O)c3ccccc3)C2)O1 (configuration not stated) | > 263 | > 263 | 
O=c1c2cc3c(=O)n4c(cc(-c5ccccc5)c5cc(Cl)ccc54)nc3cc2nc2cc(-c3ccccc3)c3cc(Cl)ccc3n12 | > 100 | > 100 | 
COc1cccc(/C=C(/C(C)=O)C(=O)c2ccccc2)c1 |  |  | inactive
NC(=S)NNc1c([N+](=O)[O-])cnn(-c2ccccc2)c1=O | > 58.9 | 0.324 | 
CC(=O)Oc1ccc2c(c1)[nH]c1c3ccc(OC(C)=O)cc3oc(=O)c21 | > 200 | 11.7 | 
CCN(CC)CCC(=O)c1ccc(Cl)cc1 | > 912 | 12.3 | 
O=C(O)c1cccc(C(=O)O)c1-c1c(C(=O)O)cccc1C(=O)O | > 200 | > 200 | 
CN1C(c2ccccc2)CC(=NOCc2ccccc2)CC1c1ccccc1 (configuration not stated) | > 200 | 8.71 | 
CCCN(CCC)C(=S)S | > 200 | > 200 | 
CCOc1ccc(/C=N/[N+](C)(C)C)cc1OCC | > 200 | > 200 | 
COc1cc(N=Nc2cc(S(=O)(=O)O)cc3cc(S(=O)(=O)O)cc(O)c23)c(C)cc1N=Nc1c(S(=O)(=O)O)cc2cc(Nc3ccccc3)ccc2c1O |  |  | inactive
CC(C)(N=NC(C)(C)C(=N)N)C(=N)N | > 200 | > 200 | 
O=[N+]([O-])c1ccc(C2=NOC(c3ccc(Cl)cc3)N2C23CC4CC(CC(C4)C2)C3)cc1 (configuration not stated) | > 200 | 182 | 
COC(=O)c1cc(C(=CCCCCCBr)c2cc(Cl)c(OC)c(C(=O)OC)c2)cc(Cl)c1OC | > 4.79 | > 4.79 | 
Cn1c(=O)n2n(c1=O)C1C(=CC2)C2C=CC1n1c(=O)n(C)c(=O)n12 (configuration not stated) | > 200 | > 200 | 
C[C@]12CCC(=O)C=C1CC[C@@H]1[C@@H]2C(=O)C[C@@]2(C)[C@H]1CC[C@]2(O)C(=O)CO | > 200 | > 200 | 

SMILES | EC50 [µM] | IC50 [µM] | outcome
O=C(O)COCC(=O)N(CCOCCN(Cc1ccccc1)C(=O)COCC(=O)O)Cc1ccccc1 | > 200 | > 200 | 
CCOC(=O)c1nc2ccc([N+](=O)[O-])cc2c2c1CCO2 | > 63.1 | > 63.1 | 
CCOC(OCC)[C@@H]1C[C@@H]2N(O[C@H](OC3CCCC3(c3ccccc3)c3ccccc3)[C@H](OC(C)=O)[C@@]2(CC)Cc2ccc(OC)c(OC)c2)O1 (some centres not stated) | > 200 | > 200 | 
C[C@@H]1C[C@H]2[C@@H]3CCC4=CC(=O)C=C[C@]4(C)[C@@]3(F)[C@@H](O)C[C@]2(C)[C@@]1(O)C(=O)CO |  |  | inactive
C=CP(CCP(CCP(C=C)N(CC)CC)c1ccccc1)N(CC)CC (configuration not stated) | > 6.46 | > 6.46 | 
CC(C)(C)C(=O)/C=C/c1ccc(Br)cc1 |  |  | inactive
COc1ccc(-c2nnc(-c3nsc4ccccc34)o2)cc1 | > 17 | > 17 | 
CNC(=S)SC1=NS(=O)(=O)c2ccccc2N1 | > 234 | 174 | 
Fc1nc(Sc2ncnc3nc[nH]c23)nc(-c2c3ccccc3c3sc4ccccc4n23)n1 | > 200 | 97.7 | 
COc1ccc2[nH]c3c(c2c1)[C@H](c1ccccc1)C[C@@H]1C(=O)N(c2ccccc2)C(=O)[C@H]31 |  |  | inactive
CCOC(=O)N1CCc2cc(OC)c(OC)cc2/C1=C\c1ccc(OC)c(OC)c1 |  |  | inactive
O=C(OCc1ccccc1)c1ccccc1-c1c2ccc(=O)cc-2oc2cc(OCc3ccccc3)ccc12 | > 5.13 | > 5.13 | 
C[C@H]1C(=O)O[C@@H]1[C@H]1COC(C)(C)O1 | > 200 | > 200 | 
Cc1cc(C)nc(NS(=O)(=O)c2ccc(NC(=O)c3cccc4c(N)c5ccccc5nc34)cc2)n1 | > 44.7 | > 44.7 | 
Cc1ccc(C2CC3(c4ccccc4)ON=C(c4ccccc4)N3c3ccccc3S2)cc1 (configuration not stated) | > 200 | 41.7 | 
COc1cc(OC)c2c(=O)cc(-c3ccncc3)oc2c1 |  |  | inactive
CC/C(SC)=[N+](\C)[O-] | > 955 | 174 | 
NC(=O)C12CCC1C1CCCCC12N1CCOCC1 (configuration not stated) |  |  | inactive
O=C(O)C1OC(Oc2ccc3oc4ccccc4c(=O)c3c2)C(O)C(O)C1O (configuration not stated) | > 174 | 145 | 
NCCCCNOCCCN | > 200 | > 200 | 
